The values below come from ChEMBL document CHEMBL4342450, “Antitumor Activity of Ohmyungsamycin A through the Regulation of the Skp2-p27 Axis and MCM4 in Human Colorectal Cancer Cells” (J Nat Prod, 2020).

Test [1] relates to HCT-116. Kind of test: Effect on Cul1 expression in human HCT116 cells at 5 to 20 uM after 24 hrs by Western blot analysis. The format is functional, cell-based.
In test [2] the test system is HCT-116. Kind of test: Induction of apoptosis in human HCT116 cells assessed as increase in cleaved caspase 8 level after 24 hrs by Western blot analysis. Format: functional, cell-based.
For test [3], the system named is HCT-116. As to the kind of experiment: Downregulation of CDCA7 gene expression in human HCT116 cells assessed as fold change at 15 uM incubated for 24 hrs by cDNA microarray analysis relative to control. Format: functional.
Test [4] concerns HCT-116. Kind of test: Antiproliferative activity against human HCT116 cells after 72 hrs by sulforhodamine B assay. The format is functional, cell-based.
Test [5] concerns HCT-116. As to the kind of experiment: Decrease in cell cycle associated protein expression in human HCT116 cells assessed as reduction in cyclin E expression at 5 to 20 uM after 24 hrs by Western blot analysis. Format: functional, cell-based.
The subject of the next test is SNU-638. As to the kind of experiment: Antiproliferative activity against human SNU638 cells after 72 hrs by sulforhodamine B assay. Format: functional, cell-based. Particulars: SNU-638, 72 h.
The subject of test [6] is HCT-116. Kind of test: Induction of cell cycle arrest in human HCT116 cells assessed as accumulation at G0/G1 phase at 20 uM incubated for 24 hrs by propidium iodide staining based flow cytometry (reference value: 54.7%). The format is functional.
The next test concerns Mus musculus. Kind of test: In vivo modulation of Skp2-p27 axis in tumor of BALB/c nude mouse xenografted with human HCT116 cells assessed as upregulation of p27 level at 5 to 10 m/kg, ip administered thrice a week for 3.5 weeks by Western blot analysis. The format is functional, organism-based.
The subject of test [7] is HCT-116. Kind of test: Antitumor activity against human HCT116 cells xenografted in BALB/c nude mouse assessed as tumor weight at 5 mg/kg, ip administered thrice a week for 3.5 weeks measured on last day (reference value: 100%). Format: functional.
Test [8] concerns HCT-116. Kind of test: Downregulation of MCM10 gene expression in human HCT116 cells assessed as fold change at 15 uM incubated for 24 hrs by cDNA microarray analysis relative to control. The format is functional.
In test [9] the test system is HCT-116. Kind of test: Induction of cell cycle arrest in human HCT116 cells assessed as accumulation at sub-G1 phase at 5 uM incubated for 24 hrs by propidium iodide staining based flow cytometry (reference value: 4.8%). Format: functional.
Another test has as its system A549. Kind of test: Antiproliferative activity against human A549 cells after 72 hrs by sulforhodamine B assay. The format is functional, cell-based. Particulars: A549, 72 h.
The subject of test [10] is HCT-116. Kind of test: Induction of cell cycle arrest in human HCT116 cells assessed as accumulation at G0/G1 phase at 5 uM incubated for 24 hrs by propidium iodide staining based flow cytometry (reference value: 54.7%). Format: functional.
Test [11] relates to HCT-116. Kind of test: Downregulation of SCARA3 gene expression in human HCT116 cells assessed as fold change at 15 uM incubated for 24 hrs by cDNA microarray analysis relative to control. The format is functional.

Active and inactive are the calls of the source. The rule behind the calls is not given here. *1 amine or outer side, *2 acyl side, *3 side chain or, on linkers, in order; H or OH if unused. Where a SMILES comes first, the peptide text is derived from it. Bridges are numbered along the chain shown (N, C = ends). [ ]: non-standard residue; d: D form. Phe(3R-OH) = O=C([C@@H](N[*:1])[C@H](O[*:3])c1ccccc1)[*:2]; NMeTrp(4-OMe) = CN[C@@H](Cc1c[nH]c2cccc(OC)c12)C(=O)O; NMeT = CN[C@H](C(=O)O)[C@@H](C)O; NMeL = CN[C@@H](CC(C)C)C(=O)O; NMeV = CN[C@H](C(=O)O)C(C)C

For the compound `CN[C@H](C(=O)N[C@H](C(=O)N[C@@H]1C(=O)N(C)[C@@H]([C@@H](C)O)C(=O)N[C@@H](C(C)C)C(=O)N(C)[C@@H](CC(C)C)C(=O)N[C@@H](C(C)C)C(=O)N(C)[C@@H](C(C)C)C(=O)N(C)[C@@H](Cc2c[nH]c3cccc(OC)c23)C(=O)N[C@@H](C(C)C)C(=O)N[C@@H]([C@H](O)c2ccccc2)C(=O)N[C@@H](C(C)C)C(=O)O[C@@H]1C)C(C)C)C(C)C` (H-[NMeV]VT[NMeT]V[NMeL]V[NMeV][NMeTrp(4-OMe)]V[Phe(3R-OH)]V; ester 3-C), in the test on HCT-116 [1], the outcome was inactive. For the same compound, the Activity entry with HCT-116 [2] was “Dose-dependent effect”; in the test on HCT-116 [6], 30.9%; in the test with HCT-116 [7] it was 70.3%; in the test on HCT-116 [9], 19%; with HCT-116 [10] it was 60.9%. The “fold change (FC)” value in the test with HCT-116 [3] came to 4.702; in the test on HCT-116 [8] it was 4.889; with HCT-116 [11], 4.372. In addition, the inhibition entry in the test on HCT-116 [4] is “Dose-dependent effect”. The 50% inhibitory concentration (IC50) turned out to be 7.61 µM in the test on HCT-116 [4] (HCT-116, 72 h); 9.38 µM in the test on SNU-638; 8.35 µM in the test on A549. In addition, in the test with HCT-116 [5], the inhibition entry was “Active”. Further, the result in the test with Mus musculus was Active.
